In patent publication US20110166112A1, “METHOD FOR STIMULATING PLATELET PRODUCTION” (Eisai, Inc., priority 2009, published 2011):
Values joined by “and” are separate entries in the source; they are usually repeats but may differ in a detail not shown here. Equal entries are not always repeated.

Tested on: subjects with chronic idiopathic thrombocytopenic purpura (ITP)
Experiment: Phase 2 double-blind placebo-controlled dose-ranging 28-day study of E5501 tablets: platelet count response (responder rate)
Type: in vivo, human
Conditions: for Responder, Yes / Responder, No: Day 28; for Subjects Who Maintained Responder Status, No / Subjects Who Maintained Responder Status, Yes: completer population; for Subjects Who Maintained Responder Status, Yes: Day 7 response maintained to Day 28; for subjects with increased platelet counts that met the criteria for positive response / response: day 28; for subjects with increased platelet counts that met the criteria for positive response: FAS
Procedure: This was a phase 2, multi-center, double-blind, randomized, placebo-controlled, dose-ranging, parallel group study of E5501 tablets, used in the treatment of subjects with chronic idiopathic thrombocytopenic purpura (ITP) refractory to or relapsed after at least one prior ITP therapy. Subjects who met all entry criteria were randomly assigned in a 3:3:3:3:1 ratio to one of the following five treatment groups dosed daily for 28 days: 1) E5501 2.5 mg; 2) E5501 5 mg; 3) E5501 10 mg; 4) E5501 20 mg; or 5) placebo (PBO). Each E5501 dosing group consisted of 15 subjects while the PBO group consisted of 5 subjects. All study subjects were evaluated weekly (days 7, 14, 21 and 28) for safety and efficacy while receiving study treatment, with a final assessment for safety and effectiveness performed 4 weeks after the last study dose (day 56) unless the subject entered the follow-on study. Platelet counts were also measured on day 3 and day 5.
The primary objective of this study was to assess platelet count response to E5501 on day 28. The response rate was defined as the proportion of subjects who were not on steroids with a screening visit B platelet count <30,000/mm^3 and who achieved a platelet count ≧50,000/mm^3, together with the proportion of subjects receiving steroids with a screening visit B platelet count ≧30,000/mm^3 but <50,000/mm^3 who achieved a platelet count ≧20,000/mm^3 above their screening visit B platelet count. Secondary objectives of the study included the evaluation of other markers of effectiveness, including changes in peripheral blood platelet count, the proportion of subjects who achieved a platelet count ≧50,000/mm^3 and ≧100,000/mm^3, and the proportion of subjects who achieved a doubling of their platelet count at screening visit B and the assessment of the safety and tolerability of E5501.
Primary efficacy endpoint. The primary endpoint in this study was E5501 responder rate on day 28. A responder is defined as a subject with screening visit B platelet count <30,000/mm^3 who achieves a platelet count ≧50,000/mm^3 or a subject receiving steroids with a screening visit B platelet count ≧30,000/mm^3 but <50,000/mm^3 who achieves a platelet count ≧20,000/mm^3 above their screening visit B platelet count.
The secondary endpoints included changes from screening visit B in peripheral blood platelet counts over time; the proportion of subjects who achieved a platelet count of ≧50,000/mm^3 or ≧100,000/mm^3 on day 28 and the proportion of subjects whose platelet count doubled compared to their platelet count at Screening Visit B.
The populations of interest were defined as follows: • The randomized population included all subjects who were randomized into the study. • The safety population included all randomized subjects who receive at least one dose of study drug and have at least one safety assessment. • The pharmacokinetic (PK) population included all subjects who provided blood sample for analysis of E5501. A subject was included in this population if the subject had at least one blood draw for PK assessment. • The full analysis set (FAS) included all subjects who provided adequate data to derive at least one efficacy assessment. […] The day 28 visit window was defined to be from day 25, to last dose day+1, inclusively; • Other major protocol violations that impacted the platelet endpoint evaluation. Results from Planned Analyses
Primary Efficacy Endpoint. The analysis of efficacy was performed both on the FAS population and the PP population at day 28 visit with LOCF and observed case (OC) approaches. The primary analysis population was the FAS. Fisher's exact test was used to examine the difference of response rates among each treatment pair. All p-values are nominal without adjustment for multiplicity.
Secondary Efficacy Endpoint. Analyses for secondary efficacy endpoints were performed by treatment group and by analysis visit using both LOCF and OC methods. […]

[1] = No Previous History of Splenectomy, 20 mg
[2] = No Previous History of Splenectomy, Total E5501
[3] = Number of Lines of Prior Therapy <3, 2.5 mg
[4] = Number of Lines of Prior Therapy <3, 5 mg
[5] = Number of Lines of Prior Therapy <3, 10 mg
[6] = Number of Lines of Prior Therapy <3, 20 mg
[7] = Number of Lines of Prior Therapy <3, Total E5501
[8] = Number of Lines of Prior Therapy ≧3, 2.5 mg
[9] = Number of Lines of Prior Therapy ≧3, 5 mg
[10] = Number of Lines of Prior Therapy ≧3, 10 mg
[11] = Number of Lines of Prior Therapy ≧3, 20 mg
[12] = Number of Lines of Prior Therapy ≧3, Total E5501
[13] = Per Protocol Population, 2.5 mg
[14] = Per Protocol Population, Total E5501
[15] = Previous History of Splenectomy, 2.5 mg
[16] = Previous History of Splenectomy, 5 mg
[17] = Previous History of Splenectomy, 10 mg
[18] = Previous History of Splenectomy, 20 mg
[19] = Previous History of Splenectomy, Total E5501

O=C(Nc1nc(-c2cc(Cl)cs2)c(N2CCN(C3CCCCC3)CC2)s1)c1cnc(N2CCC(C(=O)O)CC2)c(Cl)c1 [E5501, 1-(3-chloro-5-{[4-(4-chlorothiophen-2-yl)-5-(4-cyclohexylpiperazin-1-yl)thiazol-2-yl]carbamoyl}pyridine-2-yl)piperidine-4-carboxylic acid]
Responder, Yes (No Previous History of Splenectomy, 10 mg): 6 (54.5) n (%)
Responder, No [1]: 1 (11.1) n (%)
Responder, Yes [1]: 8 (88.9) n (%)
Responder, No [2]: 20 (48.8) n (%)
Responder, Yes [2]: 21 (51.2) n (%)
Responder, No [3]: 3 (100.0) n (%)
Responder, Yes [3]: 0 n (%)
Responder, No [4]: 4 (44.4) n (%)
Responder, Yes [4]: 5 (55.6) n (%)
Responder, No [5]: 1 (25.0) n (%)
Responder, Yes [5]: 3 (75.0) n (%)
Responder, No [6]: 1 (14.3) n (%)
Responder, Yes [6]: 6 (85.7) n (%)
Responder, No [7]: 9 (39.1) n (%)
Responder, Yes [7]: 14 (60.9) n (%)
Responder, No [8]: 10 (83.3) n (%)
Responder, Yes [8]: 2 (16.7) n (%)
Responder, No [9]: 3 (50.0) n (%)
Responder, Yes [9]: 3 (50.0) n (%)
Responder, No [10]: 6 (60.0) n (%)
Responder, Yes [10]: 4 (40.0) n (%)
Responder, No [11]: 2 (25.0) n (%)
Responder, Yes [11]: 6 (75.0) n (%)
Responder, No [12]: 21 (58.3) n (%)
Responder, Yes [12]: 15 (41.7) n (%)
Responder, No (Other Site Pooled, 2.5 mg): 8 (88.9) n (%)
Responder, Yes (Other Site Pooled, 2.5 mg): 1 (11.1) n (%)
Responder, No (Other Site Pooled, 5 mg): 6 (60.0)2 n (%)
Responder, Yes (Other Site Pooled, 5 mg): 4 (40.0) n (%)
Responder, No (Other Site Pooled, 10 mg): 4 (57.1) n (%)
Responder, Yes (Other Site Pooled, 10 mg): 3 (42.9) n (%)
Responder, No (Other Site Pooled, 20 mg): 1 (16.7) n (%)
Responder, Yes (Other Site Pooled, 20 mg): 5 (83.3) n (%)
Responder, No (Other Site Pooled, Total E5501): 19 (59.4) n (%)
Responder, Yes (Other Site Pooled, Total E5501): 13 (40.6) n (%)
Responder, No [13]: 11 (84.6) n (%)
Responder, Yes [13]: 2 (15.4) n (%)
Responder, No (Per Protocol Population, 5 mg): 7 (53.8) n (%)
Responder, Yes (Per Protocol Population, 5 mg): 6 (46.2) n (%)
Responder, No (Per Protocol Population, 10 mg): 5 (41.7) n (%)
Responder, Yes (Per Protocol Population, 10 mg): 7 (58.3) n (%)
Responder, No (Per Protocol Population, 20 mg): 3 (25.0) n (%)
Responder, Yes (Per Protocol Population, 20 mg): 9 (75.0) n (%)
Responder, No [14]: 26 (52.0) n (%)
Responder, Yes [14]: 24 (48.0) n (%)
Responder, No [15]: 4 (80.0) n (%)
Responder, Yes [15]: 1 (20.0) n (%)
Responder, No [16]: 2 (50.0) n (%)
Responder, Yes [16]: 2 (50.0) n (%)
Responder, No [17]: 2 (66.7) n (%)
Responder, Yes [17]: 1 (33.3) n (%)
Responder, No [18]: 2 (33.3) n (%)
Responder, Yes [18]: 4 (66.7) n (%)
Responder, No [19]: 10 (55.6) n (%)
Responder, Yes [19]: 8 (44.4) n (%)
Responder, No (Site 132, 2.5 mg): 5 (83.3) n (%)
Responder, Yes (Site 132, 2.5 mg): 1 (16.7) n (%)
Responder, No (Site 132, 5 mg): 1 (20.0) n (%)
Responder, Yes (Site 132, 5 mg): 4 (80.0) n (%)
Responder, No (Site 132, 10 mg): 3 (42.9) n (%)
Responder, Yes (Site 132, 10 mg): 4 (57.1) n (%)
Responder, No (Site 132, 20 mg): 2 (22.2) n (%)
Responder, Yes (Site 132, 20 mg): 7 (77.8) n (%)
Responder, No (Site 132, Total E5501): 11 (40.7) n (%)
Responder, Yes (Site 132, Total E5501): 16 (59.3) n (%)
responder rate (by Day 7, 2.5 mg): 6.7%
responder rate (by Day 7, 5 mg): 66.7%
responder rate (by Day 7, 10 mg): 64%
responder rate (by Day 7, 20 mg): 93.3% and 93%
subjects who achieved an increase in platelet count by ≧50,000/mm^3 (by Day 7, 20 mg): Approximately 90%
Subjects Who Maintained Responder Status, No (2.5 mg): 13 (100.0) n (%)
Subjects Who Maintained Responder Status, No (5 mg): 10 (71.4) n (%)
Subjects Who Maintained Responder Status, No (10 mg): 7 (58.3) n (%)
Subjects Who Maintained Responder Status, No (20 mg): 3 (23.1) n (%)
Subjects Who Maintained Responder Status, Yes (2.5 mg): 0 n (%)
Subjects Who Maintained Responder Status, Yes (5 mg): 4 (28.6) n (%)
Subjects Who Maintained Responder Status, Yes (10 mg): 5 (41.7) n (%)
Subjects Who Maintained Responder Status, Yes (20 mg): 10 (76.9) n (%)
Subjects Who Maintained Responder Status, Yes (Total E5501): 19 (36.5) n (%)
Subjects Who Maintained Responder Status, No (Total E5501): 33 (63.5) n (%)
subjects with increased platelet counts that met the criteria for positive response (2.5 mg): 13.3%
subjects with increased platelet counts that met the criteria for positive response (5 mg): 53.3%
subjects with increased platelet counts that met the criteria for positive response (10 mg): 50%
subjects with increased platelet counts that met the criteria for positive response (20 mg): 80%
response (other sites pooled, 5 mg): 40%
response (site 132, 5 mg): 80%
subjects who responded by day 7 (dose of ≧5 mg): 57.6%
overall response rate (highest dose of E5501 tested): 80-93%
reduction of response rates from day 7 to 28 days (lower E5501 dose groups): about 30%
subjects treated with E5501 who responded by day 3 (of 13 subjects): One
subjects treated with E5501 who responded by day 5 (of 19 subjects): 6 subjects
